Measured values from patent publication US5221606A, “Reagent and kit for enzyme assay comprising a substrate consonant with given enzyme to be assayed” (King's College London, priority 1987, dated 1993).

Legend:
lipases = test: substrate test with lipases; assay type: biochemical
[1] = solubility in water or aqueous buffer
esterases = test: substrate test with esterases; assay type: biochemical
stability on storage = assay type: physicochemical; details: potassium salt compared with free acid
carboxyesterase = test: substrate test with carboxyesterase; assay type: biochemical
Description: The serum samples were diluted by a factor of 10 prior to the assay. The substrate solution and the diluted sera were then preincubated at 37° C. in a water bath. Aliquots (0.75 ml) of the substrate solution were then pipetted into small plastic tubes (2 ml capacity), and 0.05 ml samples of the sera were added to each of the substrate aliquots and shaken vigorously to ensure adequate mixing. A blank was run by substituting water (0.05 ml) for the serum. The reaction was stopped after 10 min by the addition of the stopping buffer (0.25 ml) [prepared by dissolving DABCO (22.4 g) in water (200 ml) and adjusting the pH to 10 by the addition of a little conc. hydrochloric acid. The resulting mixture was then made up to 1000 ml with acetone]. […] [formula] where t=time of incubation in hours
Otherwise it was carried out in exactly the same ways as above

Compound: CCCCCCCCC(=O)Oc1c(OC)cc(C=C2SC(=S)N(c3ccc(C(=O)O)cc3)C2=O)cc1OC [Nonanoate]
- activity as substrate for lipase (lipases): exhibited enzymatic activity

Compound: CCCCCCCCCC(=O)Oc1c(OC)cc(C=C2SC(=S)N(CC(=O)O)C2=O)cc1OC [11d, n=8]
- activity as substrate for lipase (lipases): good substrate

Compound: COc1cc(/C=C/c2cc[n+](C)c3ccccc23)cc(OC)c1OC(=O)c1ccccc1 [24e, 4-[2(4-Benzoyloxy-3,5-dimethoxyphenyl)-vinyl]-1-methylquinolinium iodide]
- solubility ([1]; water): < 250 µM
- activity as substrate for esterases (esterases): substrate for esterases

Compound: CCCC(=O)Oc1c(OC)cc(C=C2SC(=S)N(CC(=O)O)C2=O)cc1OC [11d, n=2, 5-(Butanoyloxy-3,5-dimethoxyphenylmethylene)-2-thioxothiazolidin-4-one-3-ethanoic acid]
- solubility in alkaline buffers ([1]; alkaline buffers (pH 8 etc.)): readily dissolved
- solubility ([1]; water or aqueous buffer, aqueous buffer): > 2000 µM
- stability on standing (stability on storage): slowly decomposed on standing
- quality as substrate for / cleavage by carboxyesterase (carboxyesterase): readily cleaved
